Test results as given in the OPERA property sets (Mansouri et al. 2018).
≈ marks a conversion by molar mass, not a printed value.

| logP | solubility (25 °C) | solubility | Compound |
| --- | --- | --- | --- |
| 0.63 | – | – | CCC(C)=NO |
| – | 27.6 µM (≈ 6.25 µg/mL) | – | O=[N+]([O-])c1c(Cl)cc(Cl)cc1Cl |
| 3.31 | – | – | Nc1ccc2c(c1)C(=O)c1ccccc1C2=O |
| 6.25 | 0.0587 µM (≈ 0.02 µg/mL) | – | Cc1cc(Cc2cc(C)cc(C(C)(C)C)c2O)c(O)c(C(C)(C)C)c1 |
| 5.19 | 170 µM (≈ 35 µg/mL) | – | CC(C)(C)c1ccc(O)c(C(C)(C)C)c1 |
| – | 112000 µM (≈ 16700 µg/mL) | – | CC(=O)N(C)c1ccccc1 |
| 5.25 | – | – | ClC(c1ccccc1)(c1ccccc1)c1ccccc1 |
| – | 5820 µM (≈ 880 µg/mL) | – | CC(=O)Nc1ccccc1O |
| – | 2810 µM (≈ 500 µg/mL) | – | C=CCc1ccc(OC)c(OC)c1 |
| – | 81.7 µM (≈ 17 µg/mL) | – | O=[N+]([O-])c1cc(Cl)cc(Cl)c1O |
| 1.24 | – | – | CC(C)C(O)C(C)(C)CO (stereo unspecified) |
| – | 3080 µM (≈ 395 µg/mL) | – | N#Cc1ccccc1C#N |
| 3.61 | 325 µM (≈ 71 µg/mL) | – | OC(c1ccccc1)c1ccc(Cl)cc1 (stereo unspecified) |
| 2.7 | 333 µM (≈ 80 µg/mL) | – | COC(=O)c1ccccc1C(=O)c1ccccc1 |
| – | 133000 µM (≈ 23000 µg/mL) | – | Oc1cccc(Br)c1 |
| 1.75 | – | – | CC(=O)CC(=O)Nc1ccc(-c2ccc(NC(=O)CC(C)=O)c(C)c2)cc1C |
| 4.19 | – | – | C=Cc1ccc(CC)cc1 |
| 2.47 | 6530 µM (≈ 1000 µg/mL) | – | Cc1ccc([N+](=O)[O-])cc1O |
| – | 30.1 µM (≈ 10 µg/mL) | – | c1ccc2sc(SSc3nc4ccccc4s3)nc2c1 |
| 3.45 | 63.2 µM (≈ 10 µg/mL) | – | COc1cccc2ccccc12 |
| 2.19 | 8910 µM (≈ 1080 µg/mL) | – | CNc1cccc(C)c1 |
| 5.65 | – | – | Cc1ccc(C)c(Cc2ccccc2)c1 |
| – | 7910 µM (≈ 1400 µg/mL) | – | OCc1c(Cl)cccc1Cl |
| – | 1490 µM (≈ 230 µg/mL) | – | CC(C)=CCC/C(C)=C/CO |

More lines, now with the values behind:

| Compound | logP | solubility (25 °C) | solubility |
| --- | --- | --- | --- |
| Oc1c(Cl)cccc1Cl | – | 11700 µM (≈ 1900 µg/mL) | – |
| Cc1ccc(O)cc1[N+](=O)[O-] | 2.18 | – | – |
| CCOP(=S)(Oc1ccc([N+](=O)[O-])cc1)c1ccccc1 (stereo unspecified) | 4.78 | – | – |
| C=C(C)C(=O)OCCO | – | 768000 µM (≈ 100000 µg/mL) | – |
| CCC(C)c1cccc(C(C)CC)c1O (stereo unspecified) | – | 8.72 µM (≈ 1.8 µg/mL) | – |
| C=CC(=C)C | 2.42 | – | – |
| Nc1ccc(Cl)cc1Cl | – | 3830 µM (≈ 620 µg/mL) | – |
| ClCC(Cl)CCl | 2.27 | – | – |
| CNC(=O)Oc1ccccc1C(C)C | – | 2070 µM (≈ 400 µg/mL) | – |
| CC(C)(OOC(C)(C)c1ccccc1)c1ccccc1 | 5.5 | 1.7 µM (≈ 0.46 µg/mL) | – |
| ClCCOC(c1ccccc1)c1ccccc1 | 4.38 | – | – |
| CC(C)(C)c1cc(C(C)(C)C)c(O)c(C(C)(C)C)c1 | 6.06 | 133 µM (≈ 35 µg/mL) | – |
| CCCCCCCCN(CCCCCCCC)CCCCCCCC | – | 0.141 µM (≈ 0.05 µg/mL) | – |
| C=Cc1ccccn1 | 1.54 | – | – |
| CC(C)[N+](=O)[O-] | 0.93 | – | – |
| S=C(NC1CCCCC1)NC1CCCCC1 | 3.69 | – | – |
| O=C1c2ccccc2C(=O)c2c1ccc1ccccc21 | 4.4 | – | – |
| CC(C)CN1CCOCC1 | 1.17 | 195000 µM (≈ 28000 µg/mL) | – |
| C=CCOP(=O)(OCC=C)OCC=C | 1.76 | – | – |

| Compound | logP | solubility (25 °C) | solubility |
| --- | --- | --- | --- |
| CCCCCC1C(=O)CCC1CC(=O)OC (stereo unspecified) | – | – | 1240 µM (≈ 280 µg/mL) |
| CC=C1CC2C=CC1C2 (stereo unspecified) | 3.82 | 74 µM (≈ 8.9 µg/mL) | – |
| O=C(O)C1C(C(=O)O)C2(Cl)C(Cl)=C(Cl)C1(Cl)C2(Cl)Cl (stereo unspecified) | – | 9000 µM (≈ 3500 µg/mL) | – |
| CCCCOC(=O)CC(CC(=O)OCCCC)(OC(C)=O)C(=O)OCCCC | – | – | 12.4 µM (≈ 5 µg/mL) |
| ClCC(Cl)(Cl)CCl | 2.72 | 2640 µM (≈ 480 µg/mL) | – |
| CCCC=C(C=O)CC | – | 4640 µM (≈ 586 µg/mL) | – |
| CCCCOCCOP(=O)(OCCOCCCC)OCCOCCCC | 3.75 | – | – |
| C=CC1CC=CCC1 (stereo unspecified) | 3.93 | – | – |
| N#CCCNCCC#N | -1.34 | – | – |
| BrC(Br)Br | 2.4 | – | – |
| ClC1CCCCC1 | – | 4220 µM (≈ 500 µg/mL) | – |
| O=CC(Cl)(Cl)Cl | – | 204000 µM (≈ 30000 µg/mL) | – |
| C=CC(OC(C)=O)OC(C)=O | 0.78 | 56900 µM (≈ 9000 µg/mL) | – |
| CCCCC(CC)COC(=O)/C=C/C(=O)OCC(CC)CCCC (stereo unspecified) | – | – | 294 µM (≈ 100 µg/mL) |
| CC1CC(C)(C)CC(OOC(C)(C)C)(OOC(C)(C)C)C1 (stereo unspecified) | 6.53 | – | 1.98 µM (≈ 0.6 µg/mL) |
| O=P(OC(CCl)CCl)(OC(CCl)CCl)OC(CCl)CCl | 3.65 | – | – |
| C=C1C2CCC(C2)C1(C)C (stereo unspecified) | – | 33.8 µM (≈ 4.6 µg/mL) | – |
| Oc1cccc(Cl)c1Cl | – | 22100 µM (≈ 3600 µg/mL) | – |
| N=C(Nc1ccccc1)Nc1ccccc1 | – | 4730 µM (≈ 1000 µg/mL) | – |
